Measurements from patent publication US20100105054A1, “GENE EXPRESSION IN DUCHENNE MUSCULAR DYSTROPHY” (CINCINNATI CHILDREN'S HOSPITAL MEDICAL CENTER, priority 2008, published 2010).
“Also recorded” adds a separate entry of the source. Where two headings read alike, the source gives them in different places.

What was measured:
[1] = system: gene expression in peripheral blood; experiment: Whole genome microarray of peripheral whole blood RNA, DMD administered prednisone or deflazacort vs DMD not administered steroid; assay type: in vivo, human; conditions: for KFL10 expression: individuals administered prednisone, deflazacort, or both vs DMD not administered any agent; for KFL10 expression / CD163 nucleic acid expression / FKBP5 expression / expression of genes in the chondroitin sulfate biosynthesis pathway / haptoglobin nucleic acid expression / lactotransferrin expression / lipocalin expression: blood; for CD163 nucleic acid expression / FKBP5 expression / expression of genes in the chondroitin sulfate biosynthesis pathway / haptoglobin nucleic acid expression / lactotransferrin expression / lipocalin expression: pooled deflazacort or prednisone group vs DMD not administered; for genes with significantly different expression: pooled group administered either prednisone or deflazacort vs DMD not administered, fold change >|1.5|, unpaired t-test, p<=0.05; for genes with down-regulated expression levels / genes with up-regulated expression levels: pooled prednisone or deflazacort group vs DMD not administered, of the 524 genes
Procedure: Individuals with DMD were evaluated and had been diagnosed by a single board-certified pediatric neurologist. The diagnosis of DMD was based in part upon clinical history, examination findings, and selected muscle biopsies and was confirmed by molecular diagnostic testing.
(§1) Of the 34 individuals with DMD, 14 were administered either prednisone (PRED, n=6) or deflazacort, an oxazoline derivative of prednisolone (DEFL, n=8) at the time blood samples for gene expression evaluation were obtained. The mean duration of administration of either prednisone or deflazacort for these 14 individuals was 43.9 months. Of the 34 individuals with DMD, 20 individuals had not been administered either prednisone or deflazacort at the time blood samples for gene expression evaluation were obtained.
(§2) Sample processing and array hybridization, probe-level data analysis, and statistical analysis were identical to Example 1.

[2] = system: gene expression in peripheral blood; experiment: Whole genome microarray of peripheral whole blood RNA, DMD administered deflazacort vs DMD administered prednisone; assay type: in vivo, human
Procedure: as §1, §2

individuals with DMD = conditions: cited from earlier work; for muscle function and strength in individuals with DMD: humans with DMD
mdx mouse = conditions: cited from earlier work; for muscle strength: dystrophin deficient mdx mice
[3] = system: dystrophin deficient Caenorhabditis elegans; conditions: dystrophin deficient C. elegans; cited from earlier work
myasthenia gravis = conditions: compared to prednisone; cited from earlier work
[4] = deflazacort compared to prednisone, of the 508 genes
[5] = DMD individuals receiving deflazacort
[6] = individuals with DMD administered prednisone, blood

Compound	KFL10 expression [1]	CD163 nucleic acid expression [1]	FKBP5 expression [1]	expression of genes in the chondroitin sulfate biosynthesis pathway [1]	haptoglobin nucleic acid expression [1]	lactotransferrin expression [1]	lipocalin expression [1]	genes with significantly different expression [1]	genes with down-regulated expression levels [1]	genes with up-regulated expression levels [1]	muscle function and strength in individuals with DMD (individuals with DMD)	muscle strength (mdx mouse)	CD-11 inflammatory cells in mdx muscle (mdx mouse)	muscle degeneration [3]	further results
CC(=O)OCC(=O)[C@@]12N=C(C)O[C@@H]1C[C@H]1[C@@H]3CCC4=CC(=O)C=C[C@]4(C)[C@H]3[C@@H](O)C[C@@]12C [deflazacort]	up-regulated	up-regulated expression levels	up-regulated expression levels	up-regulated expression levels	up-regulated expression levels	increased expression levels	increased expression levels	524 genes	127 genes	397 genes	improved muscle function and strength	–	–	–	genes significantly different ([2]; DMD administered deflazacort compared to DMD administered prednisone, fold change >=|1.5|, unpaired t-test, p<=0.05, peripheral blood): 508 genes; changes in gene expression ([2]; deflazacort compared to prednisone): fewer changes in gene expression; expression of retinoic acid receptor a (RARa) ([2]; deflazacort compared to prednisone, blood): significantly up-regulated; genes significantly down-regulated [2, 4]: 478 genes; genes significantly up-regulated [2, 4]: 30 genes; side effects (individuals with DMD; [5]): fewer side effects; weight gain (individuals with DMD; [5]): less weight gain
C[C@]12C=CC(=O)C=C1CC[C@@H]1[C@@H]2C(=O)C[C@@]2(C)[C@H]1CC[C@]2(O)C(=O)CO [prednisone]	up-regulated	up-regulated expression levels	up-regulated expression levels	up-regulated expression levels	up-regulated expression levels	increased expression levels	increased expression levels	524 genes	127 genes	397 genes	improved muscle function and strength	improve muscle strength	decrease	reduce muscle degeneration	interleukin 1 beta expression [2, 6]: up-regulated; interleukin 1 receptor antagonist expression [2, 6]: up-regulated; interleukin 6 receptor expression [2, 6]: up-regulated; expression of genes related to lipid metabolism, particularly in adipose tissue ([2]; prednisone compared to deflazacort, blood): up-regulated; muscle function and strength in individuals with DMD (individuals with DMD; listed as Prednisone): improve function; KFL10 expression in the mdx mouse (mdx mouse; following six weeks of prednisone administration): up-regulated
C[C@]12C=CC(=O)C=C1CC[C@@H]1[C@@H]2[C@@H](O)C[C@@]2(C)[C@H]1CC[C@]2(O)C(=O)CO [prednisolone]	–	–	–	–	–	–	–	–	–	–	improve function	improve muscle strength	decrease	reduce muscle degeneration	–
Cn1cnc([N+](=O)[O-])c1Sc1ncnc2nc[nH]c12 [azathioprine]	–	–	–	–	–	–	–	–	–	–	does not improve DMD; also recorded: no improvement	–	–	–	immunosuppressant effectiveness (myasthenia gravis): less effective immunosuppressant
